US20240032546A1, “BRASSICA SEED MEAL (BSM)-BASED BIO-HERBICIDE FOR INHIBITING WEED GERMINATION, AND PREPARATION METHOD AND USE THEREOF” (Institute of Soil Science, CAS, priority 2022, published 2024)

System: field weeds (Portulaca oleracea L., Bothriochloa ischaemum L., Eleusine indica L., Setaria viridis L., and Amaranthus spinosus L.)
Assay: Field soil test of weed growth and germination inhibition
Assay type: in vivo
Conditions: after 1 week, dazomet 40 g/m2, BSM-based bio-herbicide 0.8 wt %
Procedure: Dazomet was added to the field soil at 40 g/m 2 of soil (as a treatment 1). The BSM-based bio-herbicide (Example 1) was added to another field soil at 0.8 wt % of the BSM per mu of soil (1 mu=300,000 jin) (as a treatment 2). The same area of field soil without adding any exogenous substances was used as a control. After 1 week, the weed growth of the two treatments and the control (field weeds included Portulaca oleracea L., Bothriochloa ischaemum L., Eleusine indica L., Setaria viridis L., and Amaranthus spinosus L.) was counted, and the germination inhibition rate of weed seeds was calculated.

With CN1CSC(=S)N(C)C1 [dazomet, Dazomet] the “inhibition rate to the field weeds compared with the control” value was 86.84% and the “weight of field weeds” value (control 1.550 kg/m^2) was 0.204 kg/m^2.
